Laboratory results as given in PubChem BioAssay (NCI).
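Exposure lasted 48 hours, with cells grown in 96-well plates and compounds tested at five concentrations. The concentration for 50% growth inhibition is given as GI50. TGI denotes the concentration required for complete inhibition of growth.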

Experiments:
Assay in all cases: inhibition of tumour cell growth, NCI panel, 48 h
OVCAR-5 ovarian = test system: OVCAR-5 ovarian
BT-549 breast = test system: BT-549 breast
OVCAR-3 ovarian = test system: OVCAR-3 ovarian
SK-OV-3 ovarian = test system: SK-OV-3 ovarian
HCT-116 colon = test system: HCT-116 colon
ACHN renal = test system: ACHN renal
MCF7 breast = test system: MCF7 breast
TK-10 renal = test system: TK-10 renal
CCRF-CEM leukemia = test system: CCRF-CEM leukemia
HOP-92 NSCLC = test system: HOP-92 NSCLC
HS 578T breast = test system: HS 578T breast
U251 CNS = test system: U251 CNS
NCI-H226 lung = test system: NCI-H226 lung
RPMI-8226 leukemia = test system: RPMI-8226 leukemia
PC-3 prostate = test system: PC-3 prostate
HOP-62 NSCLC = test system: HOP-62 NSCLC
SNB-19 CNS = test system: SNB-19 CNS
UO-31 renal = test system: UO-31 renal
T-47D breast = test system: T-47D breast
SK-MEL-28 melanoma = test system: SK-MEL-28 melanoma
NCI-H460 lung = test system: NCI-H460 lung
A498 renal = test system: A498 renal
UACC-62 melanoma = test system: UACC-62 melanoma
SK-MEL-5 melanoma = test system: SK-MEL-5 melanoma
MDA-MB-435 = test system: MDA-MB-435
COLO 205 colon = test system: COLO 205 colon
CAKI-1 renal = test system: CAKI-1 renal
M14 melanoma = test system: M14 melanoma
EKVX NSCLC = test system: EKVX NSCLC
SF-268 CNS = test system: SF-268 CNS
MDA-MB-231 breast = test system: MDA-MB-231 breast
LOX IMVI melanoma = test system: LOX IMVI melanoma
KM12 colon = test system: KM12 colon
OVCAR-4 ovarian = test system: OVCAR-4 ovarian
MOLT-4 leukemia = test system: MOLT-4 leukemia
NCI/ADR-RES ovarian = test system: NCI/ADR-RES ovarian
HL-60(TB) leukemia = test system: HL-60(TB) leukemia
A549 NSCLC = test system: A549 NSCLC
HCT-15 colon = test system: HCT-15 colon
UACC-257 melanoma = test system: UACC-257 melanoma
OVCAR-8 ovarian = test system: OVCAR-8 ovarian
NCI-H522 lung = test system: NCI-H522 lung
786-0 renal = test system: 786-0 renal
MALME-3M melanoma = test system: MALME-3M melanoma
SW-620 colon = test system: SW-620 colon
SN12C renal = test system: SN12C renal
SNB-75 CNS = test system: SNB-75 CNS
K-562 leukemia = test system: K-562 leukemia
SR leukemia = test system: SR leukemia
SF-539 CNS = test system: SF-539 CNS
SF-295 CNS = test system: SF-295 CNS
RXF 393 renal = test system: RXF 393 renal
IGROV1 ovarian = test system: IGROV1 ovarian
HT29 colon = test system: HT29 colon
SK-MEL-2 melanoma = test system: SK-MEL-2 melanoma
HCC-2998 colon = test system: HCC-2998 colon
DU-145 prostate = test system: DU-145 prostate

Compound `CCc1cccc2c3c(sc12)C(c1ccc(OC)cc1)C(C#N)=C(/N=C/c1ccc(Cl)cc1)O3` (centres undefined) has a GI50 (OVCAR-5 ovarian) of 3.97 µM, a TGI (OVCAR-5 ovarian) of 27.8 µM and a GI50 (BT-549 breast) of 4.23 µM. For the same compound, the TGI (BT-549 breast) was 39.7 µM, the GI50 (OVCAR-3 ovarian) was 0.554 µM and the TGI (OVCAR-3 ovarian) was 4.49 µM. It also gave a GI50 (SK-OV-3 ovarian) of 2.42 µM, a TGI (SK-OV-3 ovarian) of 45.4 µM and a GI50 (HCT-116 colon) of 1.07 µM. For the same compound, the TGI (HCT-116 colon) was 10.3 µM, the GI50 (ACHN renal) was 3.16 µM and the TGI (ACHN renal) was 19.4 µM. The GI50 (MCF7 breast) was 0.859 µM, the TGI (MCF7 breast) was 14.1 µM and the GI50 (TK-10 renal) was 20.5 µM. For the same compound, the TGI (TK-10 renal) was greater than 100 µM, the GI50 (CCRF-CEM leukemia) was 0.792 µM and the TGI (CCRF-CEM leukemia) was 7.96 µM. For the same compound, the GI50 (HOP-92 NSCLC) was 5.48 µM, the TGI (HOP-92 NSCLC) was 53.3 µM and the GI50 (HS 578T breast) was 1.9 µM. It also gave a TGI (HS 578T breast) of 7.8 µM, a GI50 (U251 CNS) of 3 µM and a TGI (U251 CNS) of 13.8 µM. For the same compound, the GI50 (NCI-H226 lung) was 2.59 µM, the TGI (NCI-H226 lung) was 13.1 µM and the GI50 (RPMI-8226 leukemia) was 2.28 µM. The TGI (RPMI-8226 leukemia) was 7.27 µM, the GI50 (PC-3 prostate) was 1.83 µM and the TGI (PC-3 prostate) was 22.1 µM. The GI50 (HOP-62 NSCLC) was 2.5 µM, the TGI (HOP-62 NSCLC) was 20.2 µM and the GI50 (SNB-19 CNS) was 3.56 µM. The TGI (SNB-19 CNS) was greater than 100 µM, the GI50 (UO-31 renal) was 1.85 µM and the TGI (UO-31 renal) was 49.6 µM. The GI50 (T-47D breast) was 2.43 µM, the TGI (T-47D breast) was greater than 100 µM and the GI50 (SK-MEL-28 melanoma) was 4.85 µM. For the same compound, the TGI (SK-MEL-28 melanoma) was 28 µM, the GI50 (NCI-H460 lung) was 1.02 µM and the TGI (NCI-H460 lung) was 10.4 µM. The GI50 (A498 renal) was 20.1 µM, the TGI (A498 renal) was greater than 100 µM and the GI50 (UACC-62 melanoma) was 0.54 µM. For the same compound, the TGI (UACC-62 melanoma) was 30.5 µM, the GI50 (SK-MEL-5 melanoma) was 2.81 µM and the TGI (SK-MEL-5 melanoma) was 11.8 µM. It also gave a GI50 (MDA-MB-435) of 0.227 µM, a TGI (MDA-MB-435) of 0.578 µM and a GI50 (COLO 205 colon) of 2.2 µM. It also gave a TGI (COLO 205 colon) of 5 µM, a GI50 (CAKI-1 renal) of 0.595 µM and a TGI (CAKI-1 renal) of 29.1 µM. The GI50 (M14 melanoma) was 1.24 µM, the TGI (M14 melanoma) was 5.17 µM and the GI50 (EKVX NSCLC) was 5.94 µM. It also gave a TGI (EKVX NSCLC) greater than 100 µM, a GI50 (SF-268 CNS) of 5.6 µM and a TGI (SF-268 CNS) of 44.4 µM. The GI50 (MDA-MB-231 breast) was 2.95 µM, the TGI (MDA-MB-231 breast) was 13.6 µM and the GI50 (LOX IMVI melanoma) was 1.87 µM. The TGI (LOX IMVI melanoma) was 15 µM, the GI50 (KM12 colon) was 2.06 µM and the TGI (KM12 colon) was 33.2 µM. The GI50 (OVCAR-4 ovarian) was 6.65 µM, the TGI (OVCAR-4 ovarian) was greater than 100 µM and the GI50 (MOLT-4 leukemia) was 2.25 µM. For the same compound, the TGI (MOLT-4 leukemia) was 17.1 µM, the GI50 (NCI/ADR-RES ovarian) was 0.55 µM and the TGI (NCI/ADR-RES ovarian) was 4.7 µM. The GI50 (HL-60(TB) leukemia) was 0.563 µM, the TGI (HL-60(TB) leukemia) was 5.98 µM and the GI50 (A549 NSCLC) was 5.39 µM. The TGI (A549 NSCLC) was greater than 100 µM, the GI50 (HCT-15 colon) was 0.6 µM and the TGI (HCT-15 colon) was 11.2 µM. The GI50 (UACC-257 melanoma) was 16.1 µM, the TGI (UACC-257 melanoma) was greater than 100 µM and the GI50 (OVCAR-8 ovarian) was 2.15 µM. For the same compound, the TGI (OVCAR-8 ovarian) was 7.09 µM, the GI50 (NCI-H522 lung) was 0.78 µM and the TGI (NCI-H522 lung) was 2.7 µM. For the same compound, the GI50 (786-0 renal) was 2.2 µM, the TGI (786-0 renal) was 16.1 µM and the GI50 (MALME-3M melanoma) was 0.921 µM. The TGI (MALME-3M melanoma) was 44.3 µM, the GI50 (SW-620 colon) was 1.14 µM and the TGI (SW-620 colon) was 15.7 µM. The GI50 (SN12C renal) was 3.76 µM, the TGI (SN12C renal) was 19.1 µM and the GI50 (SNB-75 CNS) was 1.35 µM. The TGI (SNB-75 CNS) was 15.3 µM, the GI50 (K-562 leukemia) was 0.363 µM and the TGI (K-562 leukemia) was greater than 100 µM. For the same compound, the GI50 (SR leukemia) was 0.361 µM, the TGI (SR leukemia) was 5.97 µM and the GI50 (SF-539 CNS) was 1.59 µM. The TGI (SF-539 CNS) was 4.29 µM, the GI50 (SF-295 CNS) was 1.26 µM and the TGI (SF-295 CNS) was 15.5 µM. It also gave a GI50 (RXF 393 renal) of 0.72 µM, a TGI (RXF 393 renal) of 2.56 µM and a GI50 (IGROV1 ovarian) of 1.67 µM. For the same compound, the TGI (IGROV1 ovarian) was greater than 100 µM, the GI50 (HT29 colon) was 2.31 µM and the TGI (HT29 colon) was 6.26 µM. For the same compound, the GI50 (SK-MEL-2 melanoma) was 0.987 µM, the TGI (SK-MEL-2 melanoma) was 5.95 µM and the GI50 (HCC-2998 colon) was 1.79 µM. The TGI (HCC-2998 colon) was 4.57 µM, the GI50 (DU-145 prostate) was 3.3 µM and the TGI (DU-145 prostate) was greater than 100 µM.
